# Laboratory results as given in ChEMBL document CHEMBL2303647, “Data associated with the publication PLoS ONE, 8(3), e57888, (2013) PMID: 23505445. Compounds: GSK PKIS; Assays: NIH NCATS”.
# Assays:
# [1] = molecular target: T1, Coelenterazine h 2-monooxygenase (Renilla reniformis, UniProt P27652)
# T1 sequence (P27652 whole entry): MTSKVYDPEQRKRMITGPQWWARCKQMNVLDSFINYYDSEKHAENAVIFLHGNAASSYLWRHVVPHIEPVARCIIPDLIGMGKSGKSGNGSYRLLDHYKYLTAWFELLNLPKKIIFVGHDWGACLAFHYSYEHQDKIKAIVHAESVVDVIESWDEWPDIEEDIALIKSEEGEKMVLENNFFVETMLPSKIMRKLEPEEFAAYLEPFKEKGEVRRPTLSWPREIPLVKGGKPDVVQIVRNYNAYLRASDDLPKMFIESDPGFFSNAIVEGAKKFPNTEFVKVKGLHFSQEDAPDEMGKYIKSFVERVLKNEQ
# Description: GSK_PKIS: Inhibition of Sea Pansy Luciferase (Data from PubChem: AID 652015) [NIH NCATS]
# [2] = molecular target: Luciferin 4-monooxygenase (Photinus pyralis, UniProt P08659)
# Luciferin 4-monooxygenase, sequence (P08659 whole entry): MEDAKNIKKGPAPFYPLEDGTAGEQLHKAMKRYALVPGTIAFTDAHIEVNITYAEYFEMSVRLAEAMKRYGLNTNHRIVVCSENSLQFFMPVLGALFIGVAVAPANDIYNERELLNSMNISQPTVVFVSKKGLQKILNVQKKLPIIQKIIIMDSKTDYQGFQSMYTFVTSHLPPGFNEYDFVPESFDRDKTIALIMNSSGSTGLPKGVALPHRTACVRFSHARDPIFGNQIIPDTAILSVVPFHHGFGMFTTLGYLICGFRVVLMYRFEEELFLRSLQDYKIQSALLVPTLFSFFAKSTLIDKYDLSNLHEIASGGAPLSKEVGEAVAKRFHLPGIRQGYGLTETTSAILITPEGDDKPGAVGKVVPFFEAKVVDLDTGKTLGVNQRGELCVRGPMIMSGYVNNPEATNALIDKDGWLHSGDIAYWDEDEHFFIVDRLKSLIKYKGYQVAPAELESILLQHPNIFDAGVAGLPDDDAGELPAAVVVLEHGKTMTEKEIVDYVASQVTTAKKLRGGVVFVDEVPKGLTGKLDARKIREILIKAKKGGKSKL
# Description: GSK_PKIS: Inhibition of Firefly Luciferase (Data from PubChem: AID 652016) [NIH NCATS]
SMILES,AC50 ([2]; read-out: AC50) [µM],AC50 ([1]; read-out: AC50) [µM],AC50 [1],AC50 [2]
CCS(=O)(=O)c1ccc(OC)c(Nc2ncc(-c3cccc(F)c3)o2)c1 [GW621970X],,,Phenotype: Inactive; Curve_Description: None,Phenotype: Inactive; Curve_Description: None
Cc1nnc(-c2ccc(C)c(-c3ccc(C(=O)NCc4ccc(Cl)cc4)cc3)c2)o1 [GW708893X],,,Phenotype: Inactive; Curve_Description: None,Phenotype: Inactive; Curve_Description: None
Cc1ccc(C(=O)NC2CCCCC2)cc1-c1ccc(C(=O)NCC2CC2)cc1 [GW782907X],,,Phenotype: Inactive; Curve_Description: None,Phenotype: Inactive; Curve_Description: None
COC(=O)Nc1nc2ccc(S(=O)(=O)c3ccc(NC(=O)Nc4cc(C(F)(F)F)ccc4F)cc3)cc2[nH]1.Cl [GW680908A],,,Phenotype: Inactive; Curve_Description: None,Phenotype: Inactive; Curve_Description: None
Cl.c1ccc(Oc2ccc(Nc3ncc(-c4ccccc4)o3)cc2)cc1 [GW641155A],,,Phenotype: Inactive; Curve_Description: None,Phenotype: Inactive; Curve_Description: None
FC(F)(F)c1ccc(-c2nn3ncccc3c2-c2ccnc(Nc3ccc4c(c3)OCCO4)n2)cc1 [GW828525X],,,Phenotype: Inactive; Curve_Description: None,Phenotype: Inactive; Curve_Description: None
O=C1Nc2ccc(I)cc2C1=Cc1cc(Br)c(O)c(Br)c1 [GW305074X],,20.6,,Phenotype: Inactive; Curve_Description: None
CNC(=O)c1ncccc1Nc1nc(Nc2cc3c(cc2OC)CCCN3C(=O)CN(C)C)nc2[nH]ccc12 [GSK-2220400A],,,Phenotype: Activator; Curve_Description: None,Phenotype: Inactive; Curve_Description: None
CS(=O)(=O)CCNCc1ccc(-c2ccc3ncnc(Nc4ccc(OCc5ccccc5)cc4)c3c2)o1.Cl [GW458787A],18.3,,Phenotype: Inactive; Curve_Description: None,
CS(=O)(=O)Nc1ccc(N/C=C2\C(=O)Nc3ccccc32)cc1 [GW278681X],16.3,23.1,,
O=C(Nc1n[nH]c2nnc(-c3cccnc3)cc12)C1CC1.O=C(O)C(F)(F)F,,,Phenotype: Inactive; Curve_Description: None,Phenotype: Inactive; Curve_Description: None
COc1cccc(-n2nc(C)c3c(N/N=C(\C)c4ccncc4)ncnc32)c1 [GW809885X],,,Phenotype: Inactive; Curve_Description: None,Phenotype: Inactive; Curve_Description: None
C[C@@H](Oc1cc(-n2cnc3ccc(OCC4CCN(C)CC4)cc32)sc1C(N)=O)c1ccccc1Cl [GSK-571989A],,20.6,,Phenotype: Inactive; Curve_Description: None
COc1cc2ncn(-c3cc(OCc4ccccc4C(F)(F)F)c(C(N)=O)s3)c2cc1OC [GW843682X],,,Phenotype: Inactive; Curve_Description: None,Phenotype: Inactive; Curve_Description: None
CCn1c(-c2nonc2N)nc2cncc(C(=O)N3CC[C@H](N)C3)c21.Cl,,,Phenotype: Inactive; Curve_Description: None,Phenotype: Inactive; Curve_Description: None
CS(=O)(=O)Nc1ccc(-c2cc(-c3ccccc3)cc(C(N)=O)c2N)cc1 [GSK-586581A],,,Phenotype: Inactive; Curve_Description: None,Phenotype: Inactive; Curve_Description: None
CCn1c(-c2nonc2N)nc2ccncc21,,,Phenotype: Inactive; Curve_Description: None,Phenotype: Inactive; Curve_Description: None
Cc1nn(C)c2cc(N(C)c3ccnc(Nc4cccc(S(N)(=O)=O)c4)n3)ccc12.Cl [GW770220A],,,Phenotype: Inactive; Curve_Description: None,Phenotype: Inactive; Curve_Description: None
COc1ccc(-c2ccncc2)cc1C(N)=O [GSK-605714A],,,Phenotype: Inactive; Curve_Description: None,Phenotype: Inactive; Curve_Description: None
Cc1cc(O)cc(C)c1/C=C/c1cncc(C(N)=O)c1 [GW435821X],,,Phenotype: Inactive; Curve_Description: None,Phenotype: Inactive; Curve_Description: None
CCn1c(-c2nonc2N)nc2c(C#CC(C)(C)O)nc(OCCNC)cc21.Cl [GSK-949675A],,20.6,,Phenotype: Inactive; Curve_Description: None
NC(=O)c1cc(-c2ccc(F)cc2)cc(-c2ccncc2)c1N [GSK-620503A],,,Phenotype: Inactive; Curve_Description: None,Phenotype: Inactive; Curve_Description: None
CNC(=O)c1cccc(C#Cc2cncnc2Nc2ccc(OCc3cccc(F)c3)c(Cl)c2)c1 [GW772405X],,,Phenotype: Inactive; Curve_Description: None,Phenotype: Inactive; Curve_Description: None
CN(C)CCOc1ccc(-c2cc(-c3ccc4c(c3)CCC4=NO)c(-c3ccncc3)o2)cc1.Cl,,,Phenotype: Inactive; Curve_Description: None,Phenotype: Inactive; Curve_Description: None
COc1ccc(-c2nn3ncccc3c2-c2ccnc(Nc3ccc(Cl)c(C(F)(F)F)c3)n2)cc1 [GW829115X],,,Phenotype: Activator; Curve_Description: None,Phenotype: Inactive; Curve_Description: None
Cc1ccc(NC(=O)c2ccoc2)cc1-c1ccc(C(=O)NCC2CC2)cc1 [GW743024X],41.1,,Phenotype: Inactive; Curve_Description: None,
COc1ccccc1Nc1ncc(-c2ccccc2)o1.Cl [GW577921A],1.03,,Phenotype: Inactive; Curve_Description: None,
COc1ccc2c(-c3ccnc(Nc4cccc(OC(F)(F)F)c4)n3)cnn2n1 [GW810372X],,,Phenotype: Activator; Curve_Description: None,Phenotype: Inactive; Curve_Description: None

# More lines, main results first:
AC50 ([2]; read-out: AC50) [µM],AC50 ([1]; read-out: AC50) [µM],SMILES,AC50 [1],AC50 [2]
18.3,,COc1cccc(-n2ncc3c(N/N=C/c4cccc(F)c4)ncnc32)c1 [GW817394X],Phenotype: Inactive; Curve_Description: None,
0.73,,Cl.NC(=O)c1cccc(Nc2nccc(Nc3cccc(F)c3)n2)c1 [GW759710A],Phenotype: Inactive; Curve_Description: None,
1.46,,Cc1ccc(Nc2ccnc(Nc3cccc(C(N)=O)c3)n2)cc1O.Cl [GW575808A],Phenotype: Inactive; Curve_Description: None,
20.6,,CC(C)c1ccc(Nc2nccc(-c3cnn4ncccc34)n2)cc1 [GW805758X],Phenotype: Inactive; Curve_Description: None,
,18.3,CCCN1CCC(c2ccc(Nc3nc(Nc4cc(F)ccc4C(N)=O)c4cc[nH]c4n3)c(OC)c2)CC1 [GSK-1326255A],,Phenotype: Inactive; Curve_Description: None
18.3,,CN(c1ccc(NC(=O)Nc2ccc(OC(F)(F)F)cc2)cc1)c1ccnc(Nc2cccc(S(N)(=O)=O)c2)n1 [GW806742X],Phenotype: Inactive; Curve_Description: None,
0.58,,Cc1cccc(Nc2ncc(-c3ccccc3)o2)c1 [GW632046X],Phenotype: Inactive; Curve_Description: None,
,36.6,O=C1NC(=O)C(c2cccc(Cl)c2)=C1Nc1ccc(O)c(Cl)c1,,Phenotype: Inactive; Curve_Description: None
20.6,,CS(=O)(=O)Nc1ccc(-c2ccc3c(NC(=O)C4CC4)n[nH]c3c2)cc1,Phenotype: Inactive; Curve_Description: None,
20.6,,CS(=O)(=O)Nc1cccc(-c2ccc3c(NC(=O)C4CC4)n[nH]c3c2)c1,Phenotype: Inactive; Curve_Description: None,
,36.6,Nc1ncc(-c2cccc(S(N)(=O)=O)c2)c2scc(-c3ccc(F)c(Cl)c3)c12 [GW856804X],,Phenotype: Inactive; Curve_Description: None
41.1,,Cc1ccc2c(-c3ccnc(Nc4cccc(C(F)(F)F)c4)n3)c(-c3ccccc3)nn2n1 [GW829906X],Phenotype: Inactive; Curve_Description: None,
,0.0007,COc1ccc2ncnc(Nc3ccc(OCc4ccccc4)cc3)c2c1.Cl,,Phenotype: Inactive; Curve_Description: None
1.03,,CCn1c(-c2nonc2N)nc2cnc(Oc3cccc(NC(=O)c4ccc(N(C)C)cc4)c3)cc21 [GSK-248233A],Phenotype: Inactive; Curve_Description: None,
41.1,,Cc1ccc(O)cc1Nc1ccnc2ccc(S(C)(=O)=O)cc12 [GW559768X],Phenotype: Inactive; Curve_Description: None,
14.6,20.6,Cn1cc(C=C2C(=O)Nc3cccnc32)c2ccccc21 [GW441756X],,
,29.1,CCn1c(-c2nonc2N)nc2c(C#CC(C)(C)O)nc(OC[C@H](N)c3ccccc3)cc21 [GSK-943949A],,Phenotype: Inactive; Curve_Description: None
,29.1,CCn1c(-c2nonc2N)nc2c(C#CC(C)(C)O)nc(OC[C@@H](N)c3ccccc3)cc21 [GSK-938890A],,Phenotype: Inactive; Curve_Description: None
,25.9,NC(=O)c1sc(-n2cnc3ccccc32)cc1OCc1ccccc1Br [GSK-1023156A],,Phenotype: Inactive; Curve_Description: None
4.61,,c1cc(-c2cnn3nc(N4CCOCC4)ccc23)nc(NC2CC2)n1 [GW708336X],Phenotype: Inactive; Curve_Description: None,
32.6,,O=C(O)/C=C/C(=O)O.OCCCNc1nccc(-c2c(-c3ccc(F)cc3)nn3cc(C(F)(F)F)ccc23)n1 [GW569293E],Phenotype: Inactive; Curve_Description: None,
32.6,18.3,O=C1Nc2ccc(-c3cccnc3)cc2C1=Cc1cc(Br)c(O)c(Br)c1 [GW429374A],,
32.6,,CCc1cccc(NC(=O)Nc2ccc(Oc3ccc4nc(NC(=O)OC)[nH]c4c3)cc2)c1 [GW673715X],Phenotype: Inactive; Curve_Description: None,
